Experiment [1] deals with PKB Ser473 phosphorylation in Rat1-myr-HA-p110 delta cells. Kind of experiment: Reverse protein array assay, PKB Ser473 phosphorylation in Rat1-myr-p110 delta cells. Type of experiment: cell-based. As to conditions: read-out: p-PKB IC50. In a few lines: (§1)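 Rat1 cells expressing myristoylated HA-tagged p110 alpha, beta or delta were plated for at least 20 h, then exposed to 8-step serial compound dilutions (0.2% DMSO final) for 30 min at 37 °C. Lysates were spotted at four dilutions on protein microarrays, and relative fluorescence intensity of phospho-Ser473 PKB was calculated.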

For experiment [2], the system named is PKB Ser473 phosphorylation in Rat1-myr-HA-p110 alpha cells. As to the kind of experiment: Reverse protein array assay, PKB Ser473 phosphorylation in Rat1-myr-p110 alpha cells. Type of experiment: cell-based. To be noted: 0.5 h, pAkt Ser473, 30 minutes compound incubation, read-out: p-PKB IC50. A digest of the protocol: as §1
Another experiment has as its target T1, PI3K alpha (Homo sapiens, UniProt P42336).
T1 construct: p85(iSH2) fusion partner (see partner chain) (N); His tag (C); made in house; host or cells: baculovirus; Tn5 (Trichoplusia ni) or TiniPro insect cells
As to the kind of experiment: PI3K alpha kinase assay (Kinase-Glo luminescence). It counts as biochemical. A digest of the protocol:
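IC50 is taken from a four-parameter logistic fit of 8-point dilutions, with Kinase-Glo luminescence reporting residual ATP. Reactions ran 60 min at room temperature in TRIS pH 7.5 buffer with MgCl2, NaCl, CHAPS and DTT. Final levels were 10 nM enzyme, 1 μM ATP and 10 μg/mL PI.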

In experiment [3] the test system is PKB Ser473 phosphorylation in Rat1-myr-HA-p110 beta cells. As to the kind of experiment: Reverse protein array assay, PKB Ser473 phosphorylation in Rat1-myr-p110 beta cells. Type of experiment: cell-based. As to conditions: 0.5 h, pAkt Ser473, 30 minutes incubation, read-out: p-PKB IC50. A digest of the protocol:
as §1

The target in another experiment is T2, PI3K beta (Homo sapiens, UniProt P42338).
T2 construct: for the full-length p110-b subunit are generated and fused by overlapping PCR; p85(iSH2) fusion partner (see partner chain) (N); His tag (C); made in house; host or cells: baculovirus; Tn5 (Trichoplusia ni) or TiniPro insect cells
T2 sequence (P42338 with tags, fused parts or gaps limits assumed): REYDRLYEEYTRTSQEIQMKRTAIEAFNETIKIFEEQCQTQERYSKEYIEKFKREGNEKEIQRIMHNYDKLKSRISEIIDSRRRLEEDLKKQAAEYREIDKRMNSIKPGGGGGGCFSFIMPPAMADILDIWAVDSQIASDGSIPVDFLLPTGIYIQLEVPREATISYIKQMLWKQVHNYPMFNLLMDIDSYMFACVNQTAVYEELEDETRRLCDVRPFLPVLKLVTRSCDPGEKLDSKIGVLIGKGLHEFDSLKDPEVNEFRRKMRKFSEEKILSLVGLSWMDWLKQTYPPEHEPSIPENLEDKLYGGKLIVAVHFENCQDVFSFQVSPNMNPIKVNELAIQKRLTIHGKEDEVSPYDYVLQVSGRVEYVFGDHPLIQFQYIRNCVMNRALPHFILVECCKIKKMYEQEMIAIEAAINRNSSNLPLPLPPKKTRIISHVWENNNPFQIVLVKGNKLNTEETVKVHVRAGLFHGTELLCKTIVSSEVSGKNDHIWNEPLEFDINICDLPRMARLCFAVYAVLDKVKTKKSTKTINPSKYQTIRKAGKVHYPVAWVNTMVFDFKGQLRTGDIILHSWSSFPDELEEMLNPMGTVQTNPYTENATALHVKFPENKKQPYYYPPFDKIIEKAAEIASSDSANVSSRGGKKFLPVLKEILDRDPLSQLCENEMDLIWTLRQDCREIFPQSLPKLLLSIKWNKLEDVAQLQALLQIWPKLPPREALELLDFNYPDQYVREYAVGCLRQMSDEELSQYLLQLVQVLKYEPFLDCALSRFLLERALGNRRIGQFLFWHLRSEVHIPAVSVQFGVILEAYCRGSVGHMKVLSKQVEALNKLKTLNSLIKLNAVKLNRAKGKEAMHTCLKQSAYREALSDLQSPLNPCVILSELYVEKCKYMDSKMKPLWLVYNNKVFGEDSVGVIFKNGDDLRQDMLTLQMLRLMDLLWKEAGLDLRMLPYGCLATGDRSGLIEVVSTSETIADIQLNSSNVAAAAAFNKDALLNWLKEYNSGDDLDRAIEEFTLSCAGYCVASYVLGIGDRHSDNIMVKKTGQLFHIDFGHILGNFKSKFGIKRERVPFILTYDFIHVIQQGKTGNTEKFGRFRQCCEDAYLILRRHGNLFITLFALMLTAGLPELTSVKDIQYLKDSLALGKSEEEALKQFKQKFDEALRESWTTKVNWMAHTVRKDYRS
Kind of experiment: PI3K beta kinase assay (Kinase-Glo luminescence). Type of experiment: biochemical. In a few lines: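 Residual ATP after a 60 min room-temperature reaction is quantified by Kinase-Glo luminescence. Enzyme: 25 nM BV-949 (p85 iSH2–linker–full-length p110β); substrates 1 μM ATP, 10 μg/mL PI; buffer Tris pH 7.5, MgCl2, NaCl, CHAPS, DTT. Eight concentrations per compound, four-parameter logistic IC50.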
(Kinase-Glo reads ATP consumption through a luciferase reaction.)

For seven molecules, IC50 results are on record in patent US20140005163A1 (NOVARTIS AG, priority 2010, published 2014).

What is called IC50 is the point on the concentration scale where inhibition reaches its midpoint.

A value given as a limit tells only on which side of the number the result lay.

T1 sequence (P42336 with tags, fused parts or gaps limits assumed): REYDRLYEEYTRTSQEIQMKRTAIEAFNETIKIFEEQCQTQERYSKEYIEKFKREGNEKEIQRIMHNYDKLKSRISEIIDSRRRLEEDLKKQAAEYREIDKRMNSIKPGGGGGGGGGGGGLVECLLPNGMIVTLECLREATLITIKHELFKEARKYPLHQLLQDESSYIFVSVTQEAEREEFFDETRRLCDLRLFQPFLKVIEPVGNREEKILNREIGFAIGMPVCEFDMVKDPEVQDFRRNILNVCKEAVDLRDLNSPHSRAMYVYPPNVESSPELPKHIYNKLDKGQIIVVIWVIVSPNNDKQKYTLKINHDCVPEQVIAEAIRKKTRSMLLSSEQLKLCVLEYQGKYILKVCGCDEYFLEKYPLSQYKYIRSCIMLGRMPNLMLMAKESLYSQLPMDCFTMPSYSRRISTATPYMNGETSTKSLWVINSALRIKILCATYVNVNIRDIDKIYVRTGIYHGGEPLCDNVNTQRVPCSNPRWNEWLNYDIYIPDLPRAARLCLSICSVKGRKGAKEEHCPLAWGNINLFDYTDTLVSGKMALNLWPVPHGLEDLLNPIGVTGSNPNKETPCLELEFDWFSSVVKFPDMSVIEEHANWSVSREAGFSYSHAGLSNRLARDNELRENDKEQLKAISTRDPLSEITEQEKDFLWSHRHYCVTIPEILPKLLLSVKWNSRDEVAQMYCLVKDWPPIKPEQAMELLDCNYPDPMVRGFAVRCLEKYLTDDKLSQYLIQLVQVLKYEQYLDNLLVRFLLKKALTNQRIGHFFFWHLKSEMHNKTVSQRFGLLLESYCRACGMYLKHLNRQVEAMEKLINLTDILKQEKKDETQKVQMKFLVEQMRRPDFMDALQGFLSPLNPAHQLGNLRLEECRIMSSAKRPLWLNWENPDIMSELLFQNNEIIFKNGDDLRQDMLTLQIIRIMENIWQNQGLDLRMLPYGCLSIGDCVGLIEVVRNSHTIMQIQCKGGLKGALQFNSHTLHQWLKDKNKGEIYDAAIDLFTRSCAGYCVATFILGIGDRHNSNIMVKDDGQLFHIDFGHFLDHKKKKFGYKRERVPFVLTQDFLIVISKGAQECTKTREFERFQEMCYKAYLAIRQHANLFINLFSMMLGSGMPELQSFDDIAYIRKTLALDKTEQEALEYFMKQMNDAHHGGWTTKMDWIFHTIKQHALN

On to `COc1ncc(-c2ccc3ncc4c(c3c2)n(-c2cn(C)nc2Cl)c(=O)n4C)cc1CO` [Example 200, 1-(3-Chloro-1-methyl-1H-pyrazol-4-yl)-8-(5-hydroxymethyl-6-methoxy-pyridin-3-yl)-3-methyl-1,3-dihydro-imidazo[4,5-c]quinolin-2-one], for which the IC50 in experiment [1] is 7 nM; in experiment [2], less than 5 nM; at PI3K alpha it was 9 nM; in experiment [3] it was less than 5 nM; on PI3K beta, 13 nM.

On to `Cc1nn(C)cc1-n1c(=O)n(C)c2cnc3ccc(-c4cncc(NC(C)C)c4)cc3c21` [Example 177.1, 1-(1,3-Dimethyl-1H-pyrazol-4-yl)-8-(5-isopropylamino-pyridin-3-yl)-3-methyl-1,3-dihydro-imidazo[4,5-c]quinolin-2-one], for which the concentration for half-maximal inhibition (IC50) was 39 nM in experiment [1]; 9 nM in experiment [2]; 14 nM at PI3K alpha; 16 nM in experiment [3]; 18 nM at PI3K beta.

Turning to `CNc1ncc(-c2ccc3ncc4c(c3c2)n(-c2c(C)nn(C)c2C)c(=O)n4C)cn1` [Example 80.2], the half-inhibitory concentration (IC50) in experiment [1] was 323 nM; in experiment [2] it was 108 nM; on PI3K alpha it was 42 nM; in experiment [3], 196 nM; on PI3K beta, 288 nM.

`COc1cc(-c2ccc3ncc4c(c3c2)n(-c2cn(C(C)C)nc2C)c(=O)n4C)cnc1CO` [Example 194.1, 8-(6-Hydroxymethyl-5-methoxy-pyridin-3-yl)-1-(1-isopropyl-3-methyl-1H-pyrazol-4-yl)-3-methyl-1,3-dihydro-imidazo[4,5-c]quinolin-2-one]: the IC50 in experiment [1] was determined as 145 nM; in experiment [2], 44 nM; on PI3K alpha, 34 nM; in experiment [3] it was 81 nM; on PI3K beta, 324 nM.

On to `Cc1nn(C)cc1-n1c(=O)n(C)c2cnc3ccc(-c4cnc(N)nc4)cc3c21` [Example 81.1, 8-(2-Amino-pyrimidin-5-yl)-1-(1,3-dimethyl-1H-pyrazol-4-yl)-3-methyl-1,3-dihydro-imidazo[4,5-c]quinolin-2-one], for which the half-maximal inhibitory concentration (IC50) in experiment [1] was found to be 11 nM; in experiment [2], 13 nM; at PI3K alpha, 75 nM; in experiment [3], 18 nM; at PI3K beta, 91 nM.

Consider `CCNc1ncc(-c2ccc3ncc4c(c3c2)n(-c2cn(C)nc2C)c(=O)n4C)cc1Cl` [Example 147, 8-(5-Chloro-6-ethylamino-pyridin-3-yl)-1-(1,3-dimethyl-1H-pyrazol-4-yl)-3-methyl-1,3-dihydro-imidazo[4,5-c]quinolin-2-one], for which the IC50 in experiment [1] was found to be 86 nM; in experiment [2], 17 nM; on PI3K alpha it was 25 nM; in experiment [3] it was 30 nM; on PI3K beta, 114 nM.

As for `CCNc1cc(-c2ccc3ncc4c(c3c2)n(-c2cn(C)nc2C)c(=O)n4C)cnc1COC` [Example 156, 1-(1,3-Dimethyl-1H-pyrazol-4-yl)-8-(5-ethylamino-6-methoxymethyl-pyridin-3-yl)-3-methyl-1,3-dihydro-imidazo[4,5-c]quinolin-2-one], the IC50 came out at 12 nM in experiment [1]; 10 nM in experiment [2]; 16 nM at PI3K alpha; 5 nM in experiment [3]; 29 nM at PI3K beta.
